Measurements reported in ChEMBL document CHEMBL3407455, “Discovery of highly potent, selective, and efficacious small molecule inhibitors of ERK1/2” (J Med Chem, 2015).

Experiments:
in vivo [1] = conditions: CD-1, mouse, iv, 1 mg/kg
in vivo [2] = conditions: CD-1, mouse, plasma, po, 5 mg/kg
in vivo [3] = conditions: CD-1, mouse, po, 5 mg/kg
in vitro = conditions: dog, MDCK
in vivo [4] = conditions: nude, mouse, po, 5 mg/kg
in vivo [5] = conditions: nude, mouse, po, 5 mg/kg; remark: listed apart in the source
in vivo [6] = conditions: nude, mouse, plasma, po, 5 mg/kg
in vivo [7] = conditions: nude, mouse, po, 5 mg/kg; remark: listed apart in the source
in vivo [8] = conditions: nude, mouse, iv, 1 mg/kg
in vivo [9] = conditions: nude, mouse, po, 30 mg/kg
in vivo [10] = conditions: nude, mouse, po, 30 mg/kg; remark: listed apart in the source
in vivo [11] = conditions: nude, mouse, plasma, po, 30 mg/kg
in vivo [12] = conditions: nude, mouse, po, 100 mg/kg
in vivo [13] = conditions: nude, mouse, po, 100 mg/kg; remark: listed apart in the source
in vivo [14] = conditions: nude, mouse, plasma, po, 100 mg/kg
in vivo [15] = conditions: nude, mouse, po, 100 mg/kg; remark: listed apart in the source
in vivo [16] = conditions: nude, mouse, po, 150 mg/kg
in vivo [17] = conditions: nude, mouse, po, 150 mg/kg; remark: listed apart in the source
in vivo [18] = conditions: nude, mouse, plasma, po, 150 mg/kg
in vivo [19] = conditions: nude, mouse, po, 150 mg/kg; remark: listed apart in the source
in vivo [20] = conditions: rat, po, 5 mg/kg
in vivo [21] = conditions: rat, po, 5 mg/kg; remark: listed apart in the source
in vivo [22] = conditions: rat, plasma, po, 5 mg/kg
in vivo [23] = conditions: rat, po, 5 mg/kg; remark: listed apart in the source
in vivo [24] = conditions: rat, iv, 1 mg/kg
in vivo [25] = conditions: dog, po, 5 mg/kg
in vivo [26] = conditions: dog, po, 5 mg/kg; remark: listed apart in the source
in vivo [27] = conditions: dog, plasma, po, 5 mg/kg
in vivo [28] = conditions: dog, po, 5 mg/kg; remark: listed apart in the source
in vivo [29] = conditions: dog, iv, 2 mg/kg
in vivo [30] = conditions: cynomolgus monkey, po, 5 mg/kg
in vivo [31] = conditions: cynomolgus monkey, po, 5 mg/kg; remark: listed apart in the source
in vivo [32] = conditions: cynomolgus monkey, plasma, po, 5 mg/kg
in vivo [33] = conditions: cynomolgus monkey, po, 5 mg/kg; remark: listed apart in the source
in vivo [34] = conditions: cynomolgus monkey, iv, 2 mg/kg

**Q.** For `O=c1cc(-c2ccnc(NC3CCOCC3)n2)ccn1[C@H](CO)c1cccc(Cl)c1`, which clearance (in vivo [1]) is on record?
**A.** 114 mL/min/kg

**Q.** And the AUC (in vivo [2])?
**A.** 0.59 µM·h

**Q.** And the bioavailability (in vivo [3])?
**A.** 38%

**Q.** And the Papp A→B (in vitro)?
**A.** 8.5 ×10⁻⁶ cm/s

**Q.** Which results are given for `O=c1cc(-c2ccnc(NC3CCOCC3)n2)ccn1[C@H](CO)c1cccc(F)c1`?
**A.** clearance (in vivo [1]): 39 mL/min/kg; AUC (in vivo [2]): 1.72 µM·h; bioavailability (in vivo [3]): 36%; Papp A→B (in vitro): 5.5 ×10⁻⁶ cm/s

**Q.** With `O=c1cc(-c2ccnc(NC3CCOCC3)n2)ccn1[C@H](CO)c1ccc(Cl)c(F)c1` as the compound, how does the clearance (in vivo [1]) read?
**A.** 33 mL/min/kg

**Q.** And the AUC (in vivo [2])?
**A.** 3.05 µM·h

**Q.** And the bioavailability (in vivo [3])?
**A.** 66%

**Q.** And the Cmax (in vivo [4])?
**A.** 3.12 µM

**Q.** What about the half-life (in vivo [5]) of the same compound?
**A.** 3.52 h

**Q.** And the AUC (in vivo [6])?
**A.** 5.4 µM·h

**Q.** What about the bioavailability (in vivo [7]) of the same compound?
**A.** 139%

**Q.** And the clearance (in vivo [8])?
**A.** 40 mL/min/kg

**Q.** What about the Cmax (in vivo [9]) of the same compound?
**A.** 20.2 µM

**Q.** What about the half-life (in vivo [10]) of the same compound?
**A.** 2.33 h

**Q.** And the AUC (in vivo [11])?
**A.** 46.8 µM·h

**Q.** What about the Cmax (in vivo [12]) of the same compound?
**A.** 38.9 µM

**Q.** And the half-life (in vivo [13])?
**A.** 1.71 h

**Q.** And the AUC (in vivo [14])?
**A.** 129 µM·h

**Q.** And the bioavailability (in vivo [15])?
**A.** 139%

**Q.** And the Cmax (in vivo [16])?
**A.** 67.7 µM

**Q.** And the half-life (in vivo [17])?
**A.** 1.97 h

**Q.** What about the AUC (in vivo [18]) of the same compound?
**A.** 175 µM·h

**Q.** And the bioavailability (in vivo [19])?
**A.** 127%

**Q.** What about the Cmax (in vivo [20]) of the same compound?
**A.** 1.49 µM

**Q.** And the half-life (in vivo [21])?
**A.** 1.16 h

**Q.** What about the AUC (in vivo [22]) of the same compound?
**A.** 2.15 µM·h

**Q.** And the bioavailability (in vivo [23])?
**A.** 44%

**Q.** What about the clearance (in vivo [24]) of the same compound?
**A.** 39 mL/min/kg

**Q.** What about the Cmax (in vivo [25]) of the same compound?
**A.** 2.91 µM

**Q.** What about the half-life (in vivo [26]) of the same compound?
**A.** 1.55 h

**Q.** What about the AUC (in vivo [27]) of the same compound?
**A.** 4.87 µM·h

**Q.** What about the bioavailability (in vivo [28]) of the same compound?
**A.** 46%

**Q.** And the clearance (in vivo [29])?
**A.** 18 mL/min/kg

**Q.** What about the Cmax (in vivo [30]) of the same compound?
**A.** 0.98 µM

**Q.** What about the half-life (in vivo [31]) of the same compound?
**A.** 2.39 h

**Q.** And the AUC (in vivo [32])?
**A.** 3.3 µM·h

**Q.** What about the bioavailability (in vivo [33]) of the same compound?
**A.** 22%

**Q.** And the clearance (in vivo [34])?
**A.** 12 mL/min/kg

**Q.** And the Papp A→B (in vitro)?
**A.** 11.3 ×10⁻⁶ cm/s

**Q.** Which results are given for `O=c1cc(-c2ccnc(NC3CCOCC3)n2)ccn1[C@H](CO)c1ccc(F)c(Cl)c1`?
**A.** clearance (in vivo [1]): 63 mL/min/kg; AUC (in vivo [2]): 2.18 µM·h; bioavailability (in vivo [3]): 76%; Papp A→B (in vitro): 4.6 ×10⁻⁶ cm/s
